In this assay the test system is T1, RsD2HGDH.
T1 construct: gene D2HGDH
The class given is biochemical, Ralstonia solanacearum. The conditions noted are these: free enzyme; 100 µM DCIP, 200 µM PMS, 50 mM PB pH 7.0 (assay of b15), 25 °C.

`O=C(O)CC[C@@H](O)C(=O)O` [D2HG]: the Km is 433 µM.

By Km is commonly meant the concentration of substrate that gives half-maximal velocity.

The values above are taken from article PMC8869338 (Biosensors, 2022).
